Test results: US12043670B2, “Anti-BCMA antibody-drug conjugates and methods of use” (Eisai R&D Management Co., Ltd., priority 2020, dated 2024)
Like-named read-outs stand apart in the source and are kept apart here.

Tests used:
AMO-1 cells = test: 6-day CellTiter-Glo cell viability, AMO-1; format: cell-based, human
Caco-2 permeability = format: in vitro ADME; settings: human
Procedure: Caco-2 cells were cultured for 21 days in transwell 24-well plates at 37° C., 95% humidity, 5% CO2. Integrity of cell monolayer was confirmed by TEER (transepithelial electrical resistance) and Lucifer yellow. Payloads were spiked in duplicate at 10 μM, separately, on both sides of the cell monolayer. Permeability rates from the apical to basolateral (A-B) direction and the basolateral to apical (B-A) direction were determined by sampling aliquots from both chambers immediately after treatment (t=0) and following incubation for 2 hours. Samples were protein precipitated with organic solvent containing internal standard and analyzed by LC-MS/MS (SCIEX; API 5500). The area ratio responses of payload/internal standard over time in both directions were used to generate permeability (cm/sec) values. Efflux ratio was calculated by dividing B-A/A-B. Control compounds for low and high permeability and efflux behaved as expected.

SF3b complex = target: T1, SF3b complex (Homo sapiens, UniProt O75533+Q7RTV0); test: SF3B1 binding / scintillation proximity assay (SPA); settings: competition with 2.5 nM [3H]-pladienolide B probe
T1 construct: endogenous in cells; host or cells: nuclear extracts
Procedure: A scintillation proximity assay was performed to measure the binding affinity of compounds (“payloads”) to the SF3b complex. Batch immobilization of anti-SF3B1 antibody (MBL) to anti-mouse PVT SPA scintillation beads (PerkinElmer) was prepared. For every 2.5 mg of nuclear extracts, 5 μg of anti-SF3B1 antibody and 1.5 mg of beads were mixed in 150 μL PBS. The antibody-bead mixture was incubated for 30 min at room temperature (RT) and centrifuged at 18,000 g for 5 min. 150 μL PBS was used to resuspend every 1.5 mg antibody-bead mixture. The beads were suspended and added to the prepared nuclear extracts. The slurry was incubated for 2 hours at 4° C. with gentle mixing. The beads were then collected by centrifuging at 18,000 g for 5 min, and washed twice with PBS+0.1% Triton X-100. After a final centrifugation step, every 1.5 mg of beads was suspended with 150 μL of PBS. SF3b complexes were tested for [^3H]-labeled pladienolide B probe binding ([^3H]-PB), synthesized as previously described (Kotake et al. (2007) Nat Chem Biol. 3(9):570-5). 100 μL binding reactions were prepared with 50 μL bead slurry and by adding varying concentrations of PB or PB-OH, and after 30 min pre-incubation, 2.5 nM of [^3H]-PB was added. The mixture was incubated for 30 min, and luminescence signals were read using a MicroBeta2 Plate Counter (PerkinElmer). […]

LP-1 cells = test: 6-day CellTiter-Glo cell viability, LP-1; format: cell-based, human
MM1.S cells = test: CellTiter-Glo cell viability, MM1.S; format: cell-based, human; settings: for GI50: Homo sapiens
RPMI-8226 cells = test: 6-day CellTiter-Glo cell viability, RPMI-8226; format: cell-based, human
EJM cells = test: 6-day CellTiter-Glo cell viability, EJM; format: cell-based, human
MOLP8 cells = test: CellTiter-Glo cell viability, MOLP8; format: cell-based, human
NCI-H929 cells = test: CellTiter-Glo cell viability, NCI-H929 (normal serum); format: cell-based, human; settings: for GI50: Homo sapiens
PAMPA permeability = format: in vitro ADME; settings: read-out: Stability, Mean, Perm PAMPA
U266B1 cells = test: 6-day CellTiter-Glo cell viability, U266B1; format: cell-based, human

With `CC[C@H](O)[C@@H](C)[C@H]1O[C@@H]1C[C@@](C)(O)/C=C/C=C(\C)[C@H]1OC(=O)C[C@H](O)CC[C@@](C)(O)[C@@H](OC(=O)N2CCNCC2)/C=C/[C@@H]1C` [D1, (2S,3S,6S,7R,10R,E)-7,10-dihydroxy-2-((R,2E,4E)-6-hydroxy-7-((2R,3R)-3-((2R,3S)-3-hydroxypentan-2-yl)oxiran-2-yl)-6-methylhepta-2,4-dien-2-yl)-3,7-dimethyl-12-oxooxacyclododec-4-en-6-yl piperazine-1-carboxylate] the “AUC (nM * % relative viability)” value (AMO-1 cells; AMO1 cells, 6 days) was 797.7136 nM * % relative viability, the LD50 (AMO-1 cells; AMO1 cells, 6 days, CellTiter-Glo) was 1689.735 nM and the RminAve (AMO-1 cells; AMO1 cells, 6 days, negative = cell death vs T0) was −99.4709%. The GI50 (AMO-1 cells; Homo sapiens, AMO1, 144 h) was 567 nM, the efflux ratio at 2 h, 10 μM (Caco-2 permeability; B-A/A-B) was 1.5 and the Papp A→B at 2 h, 10 μM (Caco-2 permeability; apical to basolateral, 10 μM, 2 hours, read-out: Permeability, Mean, Caco-2 A-B Perm) was 0.2 ×10⁻⁶ cm/s. It also gave a Papp B→A at 2 h, 10 μM (Caco-2 permeability; basolateral to apical, 10 μM, 2 hours, read-out: Permeability, Mean, Caco-2 B-A Perm) of 0.3 ×10⁻⁶ cm/s, an IC50 (SF3b complex) of 21.3 nM and a GI50 (LP-1 cells; Homo sapiens, LP-1, 144 h) of 112 nM. The “AUC (nM * % relative viability)” value (LP-1 cells; LP1 cells, 6 days) was 643.9226 nM * % relative viability, the LD50 (LP-1 cells; LP1 cells, 6 days, CellTiter-Glo) was 234.5168 nM and the RminAve (LP-1 cells; LP1 cells, 6 days, negative = cell death vs T0) was −99.7195%. For the same molecule, the GI50 (MM1.S cells; MM1.S, 96 h, read-out: CTGlo Mean GI50 MM1.S 96 h) was 37.1 nM, the GI50 (MM1.S cells; MM1.S, 144 h) was 88.4 nM and the “AUC (nM * % relative viability)” value (MM1.S cells; MM1S cells, 6 days) was 644.3501 nM * % relative viability. The LD50 (MM1.S cells; MM1S cells, 6 days, CellTiter-Glo) was 302.924 nM, the RminAve (MM1.S cells; MM1S cells, 6 days, negative = cell death vs T0) was −99.8996% and the “CTGlo Mean LD50 MM1.S 96 h” value (MM1.S cells; payload alone, MM1.S, 96 h) was 98.2 nM. For the same molecule, the GI50 (RPMI-8226 cells; Homo sapiens, RPMI-8226, 144 h) was 122 nM, the “AUC (nM * % relative viability)” value (RPMI-8226 cells; RPMI8226 cells, 6 days) was 648.8833 nM * % relative viability and the LD50 (RPMI-8226 cells; RPMI8226 cells, 6 days, CellTiter-Glo) was 253.1965 nM. The RminAve (RPMI-8226 cells; RPMI8226 cells, 6 days, negative = cell death vs T0) was −99.6002%, the “AUC (nM * % relative viability)” value (EJM cells; EJM cells, 6 days) was 664.163 nM * % relative viability and the LD50 (EJM cells; EJM cells, 6 days, CellTiter-Glo) was 303.5191 nM. The RminAve (EJM cells; EJM cells, 6 days, negative = cell death vs T0) was −99.0579%, the GI50 (EJM cells; Homo sapiens, EJM, 144 h) was 140 nM and the GI50 (MOLP8 cells; Homo sapiens, MOLP-8, 144 h) was 150 nM. For the same molecule, the “AUC (nM * % relative viability)” value (MOLP8 cells; MOLP8 cells, 6 days) was 690.1106 nM * % relative viability, the LD50 (MOLP8 cells; MOLP8 cells, 6 days, CellTiter-Glo) was 533.6503 nM and the RminAve (MOLP8 cells; MOLP8 cells, 6 days, negative = cell death vs T0) was −99.755%. The GI50 (NCI-H929 cells; NCI-H929, 96 h, read-out: CTGlo Mean GI50 H929 96 h) was 75.5 nM, the GI50 (NCI-H929 cells; NCI-H929, 144 h) was 119 nM and the “AUC (nM * % relative viability)” value (NCI-H929 cells; NCIH929 cells, 6 days) was 646.6007 nM * % relative viability. The LD50 (NCI-H929 cells; NCIH929 cells, 6 days, CellTiter-Glo) was 246.6292 nM, the RminAve (NCI-H929 cells; NCIH929 cells, 6 days, negative = cell death vs T0) was −99.8009% and the “CTGlo Mean LD50 H929 96 h” value (NCI-H929 cells; payload alone, H929, 96 h) was 201 nM. For the same molecule, the Papp (PAMPA permeability) was less than 0.1 ×10⁻⁶ cm/s, the GI50 (U266B1 cells; Homo sapiens, 144 h) was 238 nM and the “AUC (nM * % relative viability)” value (U266B1 cells; U266B1 cells, 6 days) was 712.6903 nM * % relative viability. The LD50 (U266B1 cells; U266B1 cells, 6 days, CellTiter-Glo) was 504.8119 nM and the RminAve (U266B1 cells; U266B1 cells, 6 days, negative = cell death vs T0) was −94.2191%.
